Laboratory results as given in patent publication US11103509B2 (University of Kentucky Research Foundation, priority 2018, dated 2021).
“Also recorded” adds a separate entry of the source. Read-outs that look alike come from different tables or passages of the source.

Assays:
pain in cancer patients [1] = assay: clinical data mining: pain complaints in afatinib Phase III clinical trial NCT00656136; type: in vivo, human
Method: To address this question, data from phase III clinical trial (NCT00656136) was also analyzed for drug afatinib, another EGFR and HER2 dual inhibitor approved by the FDA in 2013.

pain in cancer patients [2] = conditions: cited from earlier work
[3] = human, read-out: Cmax (μM) in plasma, cited from earlier work
pain in cancer patients [4] = assay: clinical data mining: pain complaints in phase III clinical trial NCT00490139; type: in vivo, human; conditions: compared to patients given only trastuzumab (FIG. 5)
Method: (§1) All p values on the differences between groups were calculated using χ^2 tests on GraphPad Prism 6.0. Confidence interval was set at 95%. […] Barnard's tests or Fisher's tests were not chosen due to the large sample size and Yate's correction on χ^2 tests was not adopted due to the same reason.

pain in cancer patients [5] = conditions: cited from earlier work; remark: listed apart in the source
human mPGES-1 [6] = molecular target: T1, human mPGES-1 (Homo sapiens, UniProt O14684); assay: in vitro inhibitory activity against human mPGES-1 (PGE2 enzyme immunoassay); type: biochemical
T1 construct: made in house
T1 sequence (O14684 1-152): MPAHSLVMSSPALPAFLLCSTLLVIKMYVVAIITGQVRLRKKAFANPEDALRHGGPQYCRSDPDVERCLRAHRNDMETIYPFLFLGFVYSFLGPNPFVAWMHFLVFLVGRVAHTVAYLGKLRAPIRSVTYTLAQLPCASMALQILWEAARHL
Method: The above computational predictions were followed by in vitro activity assays for their actual inhibitory activity against human mPGES-1 using an ELISA assay previously-described.^16-17, 19 Specifically, a total of 18 FDA-approved drugs were assayed for their inhibitory activity against human mPGES-1.
The protocol for the protein preparation and in vitro activity assays were the same as described previously.^69-72 The enzyme activity assays were performed on ice in 1.5 ml microfuge tubes by using the expressed human mPGES-1. The reaction mixture contained: 0.2 M Na2HPO4/NaH2PO4, pH 7.2, 10 μL; 0.1 M GSH, 2.5 μL; diluted microsomal enzyme (80 μg/mL), 1 μL; PGH2 (0.31 mM in DMF), 5 μL; 1 μL inhibitor; and H2O in a final reaction volume of 100 μL. PGH2 was stored in dry ice and used to initiate the reaction. Compounds were incubated with the enzyme for 15 min at room temperature before the addition of cold PGH2 (1 μM final) to initiate the enzyme reaction. After 30 s, 10 μL of SnCl2 (40 mg/mL) in ethanol was added to stop the reaction. The non-enzymatic conversion of PGH2 to PGE2 was performed in the same buffer devoid of enzyme. The reaction mixture was placed on ice until PGE2 production was determined by the PGE2 enzyme immunoassay as described earlier. IC50 values of the inhibitors were calculated by using the GraphPad Prism 6.0.

[7] = test system: pain symptoms in inflammatory breast cancer patients; conditions: lapatinib monotherapy, n=17, not statistically significant (p>0.05); cited from earlier work
pain in cancer patients [8] = conditions: NCT00490139 Group III: oral lapatinib 1500 mg daily, 52 weeks; cited from earlier work
pain in cancer patients [9] = assay: clinical data mining: patients complaining about pain in lapatinib clinical trials; type: in vivo, human; parameters: Pain decreased compared to control group (%): Arthralgia / Pain decreased compared to control group (%): Musculoskeletal Pain / Pain decreased compared to control group (%): Headache / Pain decreased compared to control group (%): Oral pain / Pain decreased compared to control group (%): Pain-overall / Pain decreased compared to control group (%): Myalgia: concentration or dose not given beside the values
Method: The “other adverse events” part of the clinical report was analyzed.
In particular, all of the data from clinical trials NCT00424255, NCT00390455, NCT00371566, and NCT00374322 was collected together as a larger dataset.
as §1

human mPGES-1 [10] = molecular target: T1, human mPGES-1; assay: in vitro inhibitory activity against human mPGES-1 (PGE2 enzyme immunoassay); type: biochemical; conditions: lapatinib constant 1 μM, GSH at different concentrations (FIG. 3D)
[11] = NCT00656136, may include multiple types of pain from each patient
[12] = NCT00656136, with drug total 390
[13] = NCT00371566, with drug total 69
[14] = NCT00374322, with drug total 1573
[15] = NCT00390455, with drug total 141
[16] = NCT00424255, with drug total 349
[17] = all individual pains added, four trials
[18] = combined NCT00374322, NCT00390455
[19] = combined NCT00374322, NCT00390455, NCT00424255, NCT00371566
[20] = combined NCT00390455, NCT00424255
[21] = combined NCT00424255, NCT00371566
[22] = combined nine trials (footnote e)

CN(C)C/C=C/C(=O)Nc1cc2c(Nc3ccc(F)c(Cl)c3)ncnc2cc1O[C@H]1CCOC1 [afatinib]
analgesic effect (in words) (pain in cancer patients [1]; NCT00656136, compared to placebo): no analgesic effects at all
# of patients complaining pain/# of patients given afatinib, Counts: Total pain occurrence (pain in cancer patients [1]; [11]): 104/390
patients complaining pain, Percentage(%): Total pain occurrence (pain in cancer patients [1]; [11]): 26.67%
Back Pain, With drug pains (pain in cancer patients [2]; [12]): 29
Headache, With drug pains (pain in cancer patients [2]; [12]): 21
Pain In Extremity, With drug pains (pain in cancer patients [2]; [12]): 27
Pain-throat/pharynx/larynx, With drug pains (pain in cancer patients [2]; [12]): 27
# of patients complaining pain/# of patients given afatinib, Counts: Back Pain (pain in cancer patients [2]; NCT00656136): 29/390
# of patients complaining pain/# of patients given afatinib, Counts: Headache (pain in cancer patients [2]; NCT00656136): 21/390
# of patients complaining pain/# of patients given afatinib, Counts: Pain - chest/thorax (pain in cancer patients [2]; NCT00656136): 27/390
# of patients complaining pain/# of patients given afatinib, Counts: Pain in Extremity (pain in cancer patients [2]; NCT00656136): 27/390
patients complaining pain, Percentage(%): Back Pain (pain in cancer patients [2]; NCT00656136): 7.43%
patients complaining pain, Percentage(%): Headache (pain in cancer patients [2]; NCT00656136): 5.38%
patients complaining pain, Percentage(%): Pain - chest/thorax (pain in cancer patients [2]; NCT00656136): 6.92%
patients complaining pain, Percentage(%): Pain in Extremity (pain in cancer patients [2]; NCT00656136): 6.92%

CS(=O)(=O)CCNCc1ccc(-c2ccc3ncnc(Nc4ccc(OCc5cccc(F)c5)c(Cl)c4)c3c2)o1 [lapatinib]
Cmax ([3]; 1250 mg orally once daily, trial NCT00477464): 6.06 µM
Cmax ([3]; 1500 mg (6 pills at 250 mg) once oral daily, trials NCT00486954 and NCT01138046, average Cmax): 8.6 µM
Cmax ([3]; dose 10 mg, GW572016 ditosylate monohydrate oral suspension (Bence et al.)): 0.019 µM
Cmax ([3]; dose 25 mg, GW572016 ditosylate monohydrate oral suspension (Bence et al.)): 0.04 µM
Cmax ([3]; dose 50 mg, GW572016 ditosylate monohydrate oral suspension (Bence et al.)): 0.124 µM
Cmax ([3]; dose 100 mg, GW572016 ditosylate monohydrate oral suspension (Bence et al.)): 0.213 µM
Cmax ([3]; dose 175 mg, GW572016 ditosylate monohydrate oral suspension (Bence et al.)): 0.38 µM
Cmax ([3]; dose 250 mg, GW572016 ditosylate monohydrate oral suspension (Bence et al.)): 0.546 µM
Cmax ([3]; dose 500 mg, tablets, daily oral, trial EGF10004): 1.76 µM
Cmax ([3]; dose 650 mg, tablets, daily oral, trial EGF10004): 2.24 µM
Cmax ([3]; dose 1000 mg, tablets, daily oral, trial EGF10004): 3.18 µM
pain relief in NCT00490139 (in words) (pain in cancer patients [4]): significantly relive all types of pain (p<0.05), except for the back pain
Headache, With drug pains (pain in cancer patients [5]; [13]): 3
Oral pain, With drug pains (pain in cancer patients [5]; [13]): 10
patients reporting arthralgia / patients in lapatinib group (pain in cancer patients [5]; NCT00374322, vs placebo 113/1574): 69/1573
patients reporting headache / patients in lapatinib group (pain in cancer patients [5]; NCT00374322, vs placebo 185/1574): 140/1573
Arthralgia, With drug pains (pain in cancer patients [5]; [14]): 69
Headache, With drug pains (pain in cancer patients [5]; [14]): 140
Arthralgia, With drug pains (pain in cancer patients [5]; [15]): 3
Back Pain, With drug pains (pain in cancer patients [5]; [15]): 5
Bone Pain, With drug pains (pain in cancer patients [5]; [15]): 3
Headache, With drug pains (pain in cancer patients [5]; [15]): 19
Musculoskeletal Pain, With drug pains (pain in cancer patients [5]; [15]): 0
Pain In Extremity, With drug pains (pain in cancer patients [5]; [15]): 1
Pain-chest/thorax, With drug pains (pain in cancer patients [5]; [15]): 1
Headache, With drug pains (pain in cancer patients [5]; [16]): 20
Musculoskeletal Pain, With drug pains (pain in cancer patients [5]; [16]): 15
Oral pain, With drug pains (pain in cancer patients [5]; [16]): 25
IC50 (human mPGES-1 [6]): 800 nM
relief from symptoms including pain (in words) [7]: provide relief from symptoms, including pain, in the short term
Arthralgia, Patient counts (pain in cancer patients [8]): 290/2057
Arthralgia, patient percentage (pain in cancer patients [8]): (14.10%)
Back Pain, patient percentage (pain in cancer patients [8]): (5.79%)
Bone Pain, Patient counts (pain in cancer patients [8]): 91/2057
Bone Pain, patient percentage (pain in cancer patients [8]): (4.42%)
Headache, Patient counts (pain in cancer patients [8]): 161/2057
Headache, patient percentage (pain in cancer patients [8]): (7.83%)
Musculoskeletal pain, Patient counts (pain in cancer patients [8]): 70/2057
Musculoskeletal pain, patient percentage (pain in cancer patients [8]): (3.40%)
Pain in Extremity, Patient counts (pain in cancer patients [8]): 99/2057
Pain in Extremity, patient percentage (pain in cancer patients [8]): (4.81%)
# of patients complaining pain/# of patients given lapatinib, Counts: Pain-overall (pain in cancer patients [9]; [17]): 304/4754
patients complaining pain, Percentage (%): Pain-overall (pain in cancer patients [9]; [17]): 6.39%
Pain decreased compared to control group (%): Pain-overall (pain in cancer patients [9]; all individual pains added, four trials, control drugs or placebo): 28.00%
# of patients complaining pain/# of patients given lapatinib, Counts: Arthralgia (pain in cancer patients [9]; [18]): 72/1714
patients complaining pain, Percentage (%): Arthralgia (pain in cancer patients [9]; [18]): 4.20%
# of patients complaining pain/# of patients given lapatinib, Counts: Headache (pain in cancer patients [9]; [19]): 182/2132
patients complaining pain, Percentage(%): Headache (pain in cancer patients [9]; [19]): 8.54%
Pain decreased compared to control group (%): Headache (pain in cancer patients [9]; combined NCT00374322, NCT00390455, NCT00424255, NCT00371566, control drugs or placebo): 23.02%
Pain decreased compared to control group (%): Arthralgia (pain in cancer patients [9]; combined NCT00374322, NCT00390455, control drugs or placebo): 39.60%
# of patients complaining pain/# of patients given lapatinib, Counts: Musculoskeletal Pain (pain in cancer patients [9]; [20]): 15/490
patients complaining pain, Percentage (%): Musculoskeletal Pain (pain in cancer patients [9]; [20]): 3.06%
Pain decreased compared to control group (%): Musculoskeletal Pain (pain in cancer patients [9]; combined NCT00390455, NCT00424255, control drugs or placebo): 39.67%
# of patients complaining pain/# of patients given lapatinib, Counts: Oral pain (pain in cancer patients [9]; [21]): 35/418
patients complaining pain, Percentage (%): Oral pain (pain in cancer patients [9]; [21]): 8.37%
Pain decreased compared to control group (%): Oral pain (pain in cancer patients [9]; combined NCT00424255, NCT00371566, control drugs or placebo): 18.03%
# of patients complaining pain/# of patients given lapatinib, Counts: Myalgia (pain in cancer patients [9]; [22]): 321/3314
patients complaining pain, Percentage (%): Myalgia (pain in cancer patients [9]; [22]): 9.69%
Pain decreased compared to control group (%): Myalgia (pain in cancer patients [9]; combined nine trials (footnote e), control drugs or placebo): 14.02%
overall pain relief (in words) (pain in cancer patients [9]; pain-overall category, combined trials, p<0.05): significantly relieve pain in cancer patients
competition with co-factor GSH (human mPGES-1 [10]): competes with co-factor GSH; also recorded: GSH-competitive inhibitor
